Read-outs that look alike come from different tables or passages of the source.
Biological target: T1, Full length wild-type cereblon CRBN (Homo sapiens, UniProt Q96SW2)
T1 construct: Full length wild-type cereblon CRBN (80.0 nM, 10 μL) was incubated in assay buffer
Assay: Fluorescence polarization (FP) assay, cereblon binding
Description: Compound activity was monitored in a fluorescence polarization (FP) homogeneous assay using 1-[5-({2-[2-(2-{[2-(2,6-dioxopiperidin-3-yl)-1,3-dioxo-2,3-dihydro-1H-isoindol-4-yl]oxy}acetamido)ethoxy]ethyl}carbamoyl)pentyl]-3,3-dimethyl-2-[(1E,3E)-5-[(2E)-1,3,3-trimethyl-5-sulfo-2,3-dihydro-1H-indol-2-ylidene]penta-1,3-dien-1-yl]-3H-indol-1-ium-5-sulfonate as a fluorescent probe. Unless otherwise stated, all reagents were purchased from Sigma Aldrich. […] Full length wild-type cereblon CRBN (80.0 nM, 10 μL) was incubated in assay buffer containing 20 mM HEPES (pH 8.0), […], 0.5 mM TCEP and 0.05% Tween 20 in the presence or absence of compound (300 nL). Inhibitors were stored as 10 mM DMSO stocks in an inert environment (low humidity, dark, low oxygen, room temperature) using the Storage Pod System. […] Following incubation at room temperature for 30 min, the assay was initiated by dispensing the probe to a final concentration of […] (2.5 nL of a 20 μM stock) using the Echo E5XX. […] The FP signal was subsequently normalized to the no-compound control (i.e., DMSO). Analysis and IC50 values were derived using Dotmatics (Dotmatics UK) software.

[1] = bounds stated in the text lists b2059-b2061, read-out: IC50 value
[2] = cereblon binding, class code, read-out: rFP IC50
[3] = IC50 value, bounds stated in the text lists b2059-b2061
[4] = rFP IC50 [nM], cereblon binding, class code

T1 sequence (Q96SW2 whole entry): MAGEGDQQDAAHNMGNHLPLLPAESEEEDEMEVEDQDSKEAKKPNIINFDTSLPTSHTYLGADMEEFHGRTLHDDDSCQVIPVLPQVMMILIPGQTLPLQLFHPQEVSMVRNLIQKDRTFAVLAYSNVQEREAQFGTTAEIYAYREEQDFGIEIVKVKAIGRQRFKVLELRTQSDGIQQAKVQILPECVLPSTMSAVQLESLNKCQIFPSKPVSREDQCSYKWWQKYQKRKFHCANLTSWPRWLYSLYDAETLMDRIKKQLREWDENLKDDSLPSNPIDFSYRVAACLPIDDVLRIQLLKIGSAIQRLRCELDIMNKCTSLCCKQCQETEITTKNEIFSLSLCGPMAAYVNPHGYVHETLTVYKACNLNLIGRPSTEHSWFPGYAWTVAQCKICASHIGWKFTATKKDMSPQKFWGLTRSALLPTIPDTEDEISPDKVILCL

Row | Compound | IC50 [1] [nM] | IC50 [2] [nM] | IC50 [3] [nM] | IC50 [4] [nM]
1 | O=C1CCC(N2Cc3ccc(COC(=O)Nc4ccc(N5CCCC(F)(F)C5)nc4)cc3C2=O)C(=O)N1 (centres unmarked) [Compound 73] | < 1100 | – | – | –
2 | CC1CCCN1c1ccc(NC(=O)OCc2ccc3c(c2)C(=O)N(C2CCC(=O)NC2=O)C3)cn1 (centres unmarked) [Compound 74] | < 1100 | – | – | –
3 | O=C1CCC(N2Cc3ccc(COC(=O)Nc4ccc(N5CCCCC5)nn4)cc3C2=O)C(=O)N1 (centres unmarked) [Compound 75] | < 1100 | – | – | –
4 | O=C1CCC(N2Cc3ccc(COC(=O)Nc4ccc(N5CCOCC5)nc4)cc3C2=O)C(=O)N1 (centres unmarked) [Compound 76] | < 1700 | 500 to 1100 | – | –
5 | CC1CCCCN1c1ccc(NC(=O)OCc2ccc3c(c2)C(=O)N(C2CCC(=O)NC2=O)C3)cn1 (centres unmarked) [Compound 77] | < 1700 | 500 to 1100 | – | –
6 | O=C1CCC(N2Cc3ccc(COC(=O)Nc4ccc(N5CCC(F)(F)CC5)nc4)cc3C2=O)C(=O)N1 (centres unmarked) [Compound 78] | < 1100 | – | – | –
7 | CN1CCN(c2ccc(NC(=O)OCc3ccc4c(c3)C(=O)N(C3CCC(=O)NC3=O)C4)cn2)CC1 (centres unmarked) [Compound 82] | < 1100 | – | – | –
8 | O=C1CCC(N2Cc3ccc(COC(=O)Nc4ccc(-c5ccccc5F)nc4)cc3C2=O)C(=O)N1 (centres unmarked) [Compound 84] | < 1100 | – | – | –
9 | Cc1ccccc1-c1ccc(NC(=O)OCc2ccc3c(c2)C(=O)N(C2CCC(=O)NC2=O)C3)cn1 (centres unmarked) [Compound 86] | < 1700 | 500 to 1100 | – | –
10 | COc1ccccc1-c1ccc(NC(=O)OCc2ccc3c(c2)C(=O)N(C2CCC(=O)NC2=O)C3)cn1 (centres unmarked) [Compound 87] | < 1700 | 500 to 1100 | – | –
11 | CN(C)C1CN(c2ccc(NC(=O)OCc3ccc4c(c3)C(=O)N(C3CCC(=O)NC3=O)C4)cn2)C1 (centres unmarked) [Compound 89] | < 1700 | 500 to 1100 | – | –
12 | COc1cc(NC(=O)OCc2ccc3c(c2)C(=O)N(C2CCC(=O)NC2=O)C3)cnc1-c1ccccc1 (centres unmarked) [Compound 90] | < 1700 | 1100 to 1700 | – | –
13 | O=C1CCC(N2Cc3ccc(COC(=O)Nc4cnc(N5CCCCC5)cn4)cc3C2=O)C(=O)N1 (centres unmarked) [Compound 94] | < 1100 | – | – | –
14 | O=C1CCC(N2Cc3ccc(COC(=O)Nc4cc(OCCN5CCOCC5)cc(OC(F)F)c4)cc3C2=O)C(=O)N1 (centres unmarked) [Compound 96] | < 1700 | 1100 to 1700 | – | –
15 | COc1ccccc1CNC(=O)OCc1ccc2c(c1)C(=O)N(C1CCC(=O)NC1=O)C2 (centres unmarked) [Compound 97] | < 1700 | 500 to 1100 | – | –
16 | O=C1CCC(N2Cc3ccc(COC(=O)NCc4ccccc4)cc3C2=O)C(=O)N1 (centres unmarked) [Compound 98] | < 1700 | 500 to 1100 | – | –
17 | O=C1CCC(N2Cc3ccc(COC(=O)Nc4cc(CN5CC6CC5CO6)cc(OC(F)F)c4)cc3C2=O)C(=O)N1 (centres unmarked) [Compound 100] | < 1700 | 500 to 1100 | – | –
18 | CC(NC(=O)OCc1ccc2c(c1)C(=O)N(C1CCC(=O)NC1=O)C2)c1ccccc1 (centres unmarked) [Compound 102] | < 1700 | 500 to 1100 | – | –
19 | O=C1CCC(N2Cc3ccc(COC(=O)Nc4cc(OCCN5CCOCC5)cc(OC(F)(F)F)c4)cc3C2=O)C(=O)N1 (centres unmarked) [Compound 106] | < 1700 | 500 to 1100 | – | –
20 | Cc1cc(NC(=O)OCc2ccc3c(c2)C(=O)N(C2CCC(=O)NC2=O)C3)cc(C)c1C#N (centres unmarked) [Compound 108] | – | – | < 1100 | –
21 | O=C1CCC(N2Cc3ccc(COC(=O)Nc4ccc5c(c4)CC(F)(F)O5)cc3C2=O)C(=O)N1 (centres unmarked) [Compound 113] | – | – | < 1100 | –
22 | CC(C)(C)c1cc(NC(=O)OCc2ccc3c(c2)C(=O)N(C2CCC(=O)NC2=O)C3)ccn1 (centres unmarked) [Compound 114] | – | – | < 1100 | –
23 | Cc1cc(NC(=O)OCc2ccc3c(c2)C(=O)N(C2CCC(=O)NC2=O)C3)cc(F)c1C (centres unmarked) [Compound 117] | – | – | < 1100 | 500 to 1100
24 | Cc1cc(NC(=O)OCc2ccc3c(c2)C(=O)N(C2CCC(=O)NC2=O)C3)cc(C(C)(C)C)n1 (centres unmarked) [Compound 118] | – | – | < 1100 | 500 to 1100
25 | Cc1cc(Cl)c(NC(=O)OCc2ccc3c(c2)C(=O)N(C2CCC(=O)NC2=O)C3)cc1Cl (centres unmarked) [Compound 119] | – | – | < 1100 | 500 to 1100
26 | CC(C)(C)C12CC(NC(=O)OCc3ccc4c(c3)C(=O)N(C3CCC(=O)NC3=O)C4)(C1)C2 (centres unmarked) [Compound 120, (2-(2,6-dioxopiperidin-3-yl)-3-oxoisoindolin-5-yl)methyl (3-(tert-butyl)bicyclo[1.1.1]pentan-1-yl)carbamate] | < 1100 | 500 to 1100 | – | –

Second part, led by results:

Row | IC50 [1] [nM] | IC50 [2] [nM] | Compound | IC50 [3] [nM] | IC50 [4] [nM]
27 | < 1700 | 1100 to 1700 | O=C1CCC(N2Cc3ccc(COC(=O)Nc4ccc5c(c4)OC(F)(F)O5)cc3C2=O)C(=O)N1 (centres unmarked) [Compound 79] | – | –
28 | < 1100 | – | O=C1CCC(N2Cc3ccc(COC(=O)Nc4ccc(C5CC5)nc4)cc3C2=O)C(=O)N1 (centres unmarked) [Compound 80] | – | –
29 | < 1100 | – | O=C1CCC(N2Cc3ccc(COC(=O)Nc4ccc(C5COC5)cc4)cc3C2=O)C(=O)N1 (centres unmarked) [Compound 81] | – | –
30 | < 1700 | 500 to 1100 | CC1(C)COc2cc(NC(=O)OCc3ccc4c(c3)C(=O)N(C3CCC(=O)NC3=O)C4)ccc21 (centres unmarked) [Compound 83] | – | –
31 | < 1700 | 500 to 1100 | Cc1cc(NC(=O)OCc2ccc3c(c2)C(=O)N(C2CCC(=O)NC2=O)C3)cnc1-c1ccccc1 (centres unmarked) [Compound 88] | – | –
32 | < 1700 | 500 to 1100 | Cc1ncc(NC(=O)OCc2ccc3c(c2)C(=O)N(C2CCC(=O)NC2=O)C3)cc1OC(F)(F)F (centres unmarked) [Compound 91] | – | –
33 | < 1700 | 500 to 1100 | O=C1CCC(N2Cc3ccc(COC(=O)Nc4ccc5c(c4)OCCC5)cc3C2=O)C(=O)N1 (centres unmarked) [Compound 92] | – | –
34 | < 1700 | 500 to 1100 | O=C1CCC(N2Cc3ccc(COC(=O)Nc4cccc(OC5CC5)c4)cc3C2=O)C(=O)N1 (centres unmarked) [Compound 93] | – | –
35 | < 1700 | 1100 to 1700 | O=C1CCC(N2Cc3ccc(COC(=O)Nc4cc(CN5CCOCC5)cc(OC(F)F)c4)cc3C2=O)C(=O)N1 (centres unmarked) [Compound 95] | – | –
36 | < 1700 | 500 to 1100 | CC1COc2cc(NC(=O)OCc3ccc4c(c3)C(=O)N(C3CCC(=O)NC3=O)C4)ccc21 (centres unmarked) [Compound 103] | – | –
37 | < 1700 | 500 to 1100 | O=C1CCC(N2Cc3ccc(COC(=O)Nc4ccc(C5CCC5)nc4)cc3C2=O)C(=O)N1 (centres unmarked) [Compound 105] | – | –
38 | < 1100 | – | O=C1CCC(N2Cc3ccc(COC(=O)Nc4ccc(N5CCC5)nc4)cc3C2=O)C(=O)N1 (centres unmarked) [Compound 107] | – | –
39 | < 1100 | – | N#Cc1cc(Cl)cc(NC(=O)OCc2ccc3c(c2)C(=O)N(C2CCC(=O)NC2=O)C3)c1 (centres unmarked) [Compound 111, (2-(2,6-dioxopiperidin-3-yl)-3-oxoisoindolin-5-yl)methyl (3-chloro-5-cyanophenyl)carbamate] | – | –
40 | < 1100 | – | Cc1cc(C#N)cc(NC(=O)OCc2ccc3c(c2)C(=O)N(C2CCC(=O)NC2=O)C3)c1 (centres unmarked) [Compound 112, (2-(2,6-dioxopiperidin-3-yl)-3-oxoisoindolin-5-yl)methyl (3-cyano-5-methylphenyl)carbamate] | – | –
41 | < 1100 | – | Cc1cc(C)c(F)c(NC(=O)OCc2ccc3c(c2)C(=O)N(C2CCC(=O)NC2=O)C3)c1 (centres unmarked) [Compound 122, (2-(2,6-dioxopiperidin-3-yl)-3-oxoisoindolin-5-yl)methyl (2-fluoro-3,5-dimethylphenyl)carbamate] | – | –
42 | < 1100 | 500 to 1100 | Cc1cc(C)c(NC(=O)OCc2ccc3c(c2)C(=O)N(C2CCC(=O)NC2=O)C3)cc1Cl (centres unmarked) [Compound 123, (2-(2,6-dioxopiperidin-3-yl)-3-oxoisoindolin-5-yl) methyl (5-chloro-2,4-dimethylphenyl)carbamate] | – | –

From patent publication US20230348418A1, “ISOINDOLINONE COMPOUNDS” (Monte Rosa Therapeutics, Inc., priority 2021, published 2023)
